This is an account of results in US20150359884A1, “MULTI-PHOTON ISOMERISATION OF COMBRETASTATINS AND THEIR USE IN THERAPY” (priority 2011, published 2015).

The structures appear in SMILES notation.

The nature of data set [1]: Two-photon absorption cross section using reference fluorophore 9-chloroanthracene. Type of data set: physicochemical. The note with it: at 620 nm, DCM. From the text:
Cell images were overlaid using Adobe Photoshop CS3.
Published cross sections for two photon absorption (σ2, the probability of an absorption process or photon interaction) typically show large variations depending on the method of measurement, using either the Z-scan method or a reference fluorophore, and the power range and pulse duration of the laser used for excitation. We have attempted to determine values of σ2 for E-CA4 and E-ACA4 using a reference fluorophore. 9-Chloroanthracene (9CIA) was selected as a standard fluorophore with an appropriate fluorescence spectrum and for which 2PE cross-sections are available. The values of σ2 at 620 nm for E-CA4 and E-CA4F in DCM were determined to be 2.1±0.5 and 2.75±0.6 GM units respectively. […] Values of σ2 at 620 nm for E-ACA and E-DMAC were both 5.7±1.2. These larger values may be consistent with some charge transfer character of the excitation of these compounds.

Data set [2] is described as follows: Fluorescence quantum yields in solvents, UV one-photon excitation. Type of data set: physicochemical. The settings on record: 20° C., 290-300 nm excitation. Here is the method:
Absorption spectra were measured in either a Perkin Elmer Lambda 25 or 950 spectrophotometer. Fluorescence measurements were made with either a Spex Fluoromax or Varian Cary Eclipse spectrofluorimeter using the spectral correction curves supplied by the manufacturers. Fluorescence quantum yields with UV (one-photon) excitation were determined using either 2-aminopyridine (Φref 0.6 [7]) or 9-chloroanthracene (Φref 0.50 in dichloromethane, determined here relative to 9,10-diphenylanthracene in cyclohexane (Φref 0.97) and anthracene in ethanol (Φref 0.28 [8]) as standards. Fluorescence quantum yields were determined from the relative slopes of plots of integrated fluorescence intensity versus (1-10^−A) for samples having absorbance A≦0.1. The square of the refractive index (n^2) correction was applied when sample and reference compounds were in different solvents. Irradiation of the samples was minimized by the use of narrow excitation slits to reduce simultaneous photoisomerization.
The fluorescence quantum yields for E-CA4F were generally somewhat higher than for E-CA4.

Data set [3] in a line: Observed solubility in water. The settings on record: aqueous solution, comparison in words. It is filed as physicochemical.
Data set [4] is described as follows: Fluorescence lifetimes in solvents, two-photon excitation with TCSPC. It is filed as physicochemical. The note with it: 20° C., two-photon excitation 620-630 nm. As to the method:
Fluorescence lifetimes were determined using 2PE at 630 nm with the microscope TCSPC setup (overall time response of 25 ps fwhm) and produced the results shown in Table 1. […] Characterisation of the spectroscopic properties of these latter two compounds remains to be investigated further. […] In the very viscous environment provided by glycerol the lifetime increases further to 1180 ps. In the range of alkanols studied the lifetime is closely correlated with solvent viscosity as shown in the inset to FIG. 3. […] However it is clear that the measured lifetime has the potential to report on cellular environments in FLIM studies. For E-CA4F similar trends are observed, but the overall differences in both lifetimes and quantum yields over the range of solvents are rather less than for E-CA4. The fluorescence lifetimes of E-CA4F are confined to a narrower range having values ranging from 440 ps in methanol through 740 ps in hexane to 1070 ps in glycerol. The more pronounced solvent dependence for E-CA4 no doubt reflects the more polar nature of the molecule compared with E-CA4F. The relative polarities may be judged from the partition coefficients (P) calculated according to the method of Brown et al..

For another data set, the system named is cells. The settings on record: typical toxicity assays; cited from earlier work.
A short description of data set [5]: Isomerization by two-photon absorption at 590 nm in DMSO solution. Type of data set: physicochemical. The note with it: Z-CA4 1 mM in DMSO, two-photon excitation 590 nm. As to the method:
FIG. 11. […] (A) Power dependence of FI from E-CA4 (0.4 mM) versus laser power at the sample. (B) Percentage conversion of Z-CA4 to the E-isomer versus laser power at the sample, calculated from the measured FI from a solution of Z-CA4 (1 mM) and a series of calibration curves using solutions of E-CA4 at each laser power.
Using 2PE the photochemical effects occur within the femtolitre volume of excitation. […] At any one instant, the concentration of isomerized compound in the focal volume will represent a steady state achieved through the balance of diffusion from the focal volume and the rate of photochemical formation.
Calibration curves were constructed of FI versus E-CA4 concentration at each laser power. These were then compared with the FI from the two-photon experiment with Z-CA4 to estimate the concentration of E-CA4 formed within the focal volume.

A short description of data set [6]: Picosecond time-resolved infrared (TRIR) spectroscopy of excited states. It is filed as physicochemical. The note with it: dichloromethane, 266 nm excitation. Here is the method:
The ultrafast time-resolved infrared (TRIR) experiments were performed on the ‘ULTRA’ laser system at the Science and Technology Facilities Council Rutherford Appleton Laboratory. The capabilities of the ULTRA instrument are described in detail elsewhere. Briefly, a chirped pulse amplified titanium:sapphire laser operating at 10 kHz repetition rate produced 40-80 fs duration pulses at a wavelength of 800 nm. The UV excitation pulse was generated from third harmonic generation of the 800 nm output of the amplifier with ˜50 fs duration at 266 nm, irradiating samples with a 1 μJ, 100 μm diameter beam. The mid-IR probe pulse was generated using ˜0.4 mJ of the 800 nm femtosecond output to pump an optical parametric amplifier, and difference frequency mixing of the signal and idler components. The mid-IR probe output pulses had ˜500 cm-1 bandwidth and ˜50 fs pulse duration. The UV pulses were polarized at a magic angle to the IR probe laser polarization. The timing between the pump and probe was performed using a PCcontrolled optical delay line. The sample in solution was placed between two 25 mm diameter CaF2 plates in a rasterscanned Harrick cell to limit irradiation of the sample by multiple pulses. The optical path of the sample between the two windows was controlled using a 100 μm PTFE spacer and the solution flowed using a peristaltic pump. The intensity of the transmitted mid-IR light was dispersed by a grating onto a pair of 128-element mercury-cadmium telluride array detectors (IR Associates), providing full (i.e. ˜500 cm-1) spectral coverage with every laser pulse. The overall instrument response time was ˜200 fs. A reference spectrum of the laser pulse (before the Harrick cell) was accumulated on a third, 64-element array detector and was used to remove the effects of laser fluctuations from the transient absorption data. Ground-state FTIR spectra were recorded using a Nicolet Avatar 360 spectrometer.
FIGS. 12 and 13 show the TRIR spectra of both isomers of CA4 following ultrafast electronic excitation using 266 nm, with the ground-state FTIR spectra shown beneath the time resolved data for comparison. To date there has been little characterization of combretastatins by infrared spectroscopy. However, the ground-state FTIR spectra have obvious similarities with stilbene and on this basis we assign the 1586/1581 and 1510/1509 cm-1 bands in E-CA4/Z-CA4 to the v8a ring stretches of the phenyl groups and v19a ring stretch with additional contributions from C—H in-plane bending. In the excited state spectra, there are negative absorption bands corresponding to bleaching of the ground-state absorptions and both the E- and Z-isomers are dominated by transient bands between 1350 and 1500 cm-1. At early times the transient bands show rapid shifting over about 10 cm-1 to higher wavenumbers associated with rapid ‘cooling’ of excess vibrational energy following electronic excitation as commonly observed in other molecular systems including DNA [26] and for the C═C stretching band of E-stilbene observed by time-resolved resonance Raman spectroscopy. It is also notable that for E-CA4 at pump-probe delays up to 20 ps, the intensities of the transient bands increase and this is most likely due to molecular rearrangements taking place lowering the overall symmetry of the molecule and increasing the cross-sections of these IR active modes. […]

Regarding `COc1ccc(/C=C/c2cc(OC)c(OC)c(OC)c2)cc1N` [E-ACA, (E)-1-(3′-Amino-4′-methoxyphenyl)-2-(3″,4″,5″-trimethoxyphenyl)ethene], the “Two photon absorption cross section σ2” value in data set [1] was 5.7±1.2 GM units. Moreover, the “Fluorescence quantum yield φ” value is on record as 0.43 in data set [2] (DCM); 0.28 in data set [2] (DMSO); 0.38 in data set [2] (Hexane); 0.41 in data set [2] (MeCN); 0.11 in data set [2] (MeOH). Also, the Solubility in water result in data set [3] is recorded as “more soluble in water than the other combretastatins studied here”. For the same compound, the “Fluorescence lifetime τ” value in data set [4] (DMSO) is listed as 4.8 ns; in data set [4] (EtOH, ne = non-exponential), “ne”; in data set [4] (Ethylene glycol, ne = non-exponential), “ne”; in data set [4] (Glycerol, ne = non-exponential), “ne”; in data set [4] (Hexane), 1.65 ns; in data set [4] (MeCN, ne = non-exponential) it was 3.6 ns. Also, the “Fluorescence lifetime τ” value in data set [4] (MeOH, ne = non-exponential) was “ne”.
Consider `COc1ccc(/C=C\c2cc(OC)c(OC)c(OC)c2)cc1O` [Z-CA4, combretastatin A4, reference compound], for which the “Concentrations required to kill cells” value in the data set with cells is on record as “nanomolar”. In data set [5], the “Concentration of E-CA4 formed within the focal volume” value is “about 250 μM” and the “Conversion of the initial concentration of Z-CA4 to the E-isomer” value is listed as 25%. In addition, in data set [6], the “Excited state decay, longer lifetime (relaxed excited state)” value was determined as 10.1±0.71 ps and the “Excited state decay, shorter lifetime (biexponential fit)” value amounted to 1.5±0.15 ps.
